This is an account of results in patent US4428950A, “(Hetarylphenoxy)-(phenylpiperazinyl)-propanols, their preparation and drugs containing these compounds” (BASF Aktiengesellschaft, priority 1981, dated 1984).

Structures can show the parent of a compound that is named as a salt. Where two headings read alike, the source gives them in different places.

One test concerns histamine bronchospasm. Nature of the test: Broncholytic action (histamine-induced bronchospasm, guineapigs under urethane narcosis). The class given is in vivo, guineapig (Pirbright white). Conditions: guineapig. On the procedure:
Male or female guineapigs (Pirbright white, weight 300-500 g) under urethane narcosis (1.5 g/kg administered intraperitoneally) are subjected to artificial respiration using a tracheal cannula. Bronchospasms are caused by intravenous injection of histamine dihydrochloride (1.0-4.64 μg/kg), and an antagonistic effect on these can be brought about by prior intravenous administration of the test substance. The spasms are recorded by the method of Konzett and Rossler (Naunyn Schmiedeberg's Arch. 195 (1940), 71), via inductive pressure sensors.

Test [1] concerns orientation hypermotility. Kind of test: Sedative action (orientation hypermotility induced by a new environment, mice). The format is in vivo, mouse (NMRI, female). Conditions: for effect in respect of sedation, % of that of chlorpromazine: relative to chlorpromazine; for Sedative effect R.A. (relative activity): chlorpromazine = 1.00; for sedative-neuroleptic properties: according to Table 1. The procedure: The substance was administered orally to 4-8 groups each comprising 3 female NMRI mice. The orientation hypermotility induced by a new environment is determined photoelectrically, 30 minutes after administration of the substance, over a period of 30 minutes. The ED 50%, ie. the dose which produces a 50% reduction in orientation hypermotility compared to placebo-treated control animals, is determined.

The next test deals with catalepsy. Kind of test: Cataleptic action (front extremities on 8 cm high bar, rats). Conditions: for Cataleptic effect R.A. (relative activity): chlorpromazine = 1.00; for ED50: ip, read-out: Cataleptic effect ED 50%; for effect in respect of catalepsy, % of that of chlorpromazine: relative to chlorpromazine. The class given is in vivo, rat (Sprague-Dawley, female). On the procedure:
30, 60, 120 and 240 minutes after intraperitoneal administration of the substance, female Sprague-Dawley rats were placed with the front extremities on an 8 cm high bar. If, because of postural rigidity, the animals remain in this position for longer than 15 seconds, they are regarded as cataleptic.

The test system of another test is blood pressure. Kind of test: Hypotensive action (blood pressure in carotid artery of rats under urethane narcosis). The format is in vivo, rat (Sprague-Dawley). As to conditions: for Hypotensive effect R.A. (relative activity): chlorpromazine = 1.00; for Hypotensive effect R.A. (relative activity) / ED20 / Hypotensive effect ED 20%: rat; for comparison with chlorpromazine, taking into account the hypotensive effect / hypotensive action, doses compared with chlorpromazine: in words; for ED20: read-out: Hypotensive effect ED 20%; for quotient of the sedative effective dose and the hypotensive effective dose, times more advantageous than for chlorpromazine: relative to chlorpromazine. The procedure:
The blood pressure was measured in the carotid artery. The substance was administered either by introduction into a jugular vein (as an aqueous solution, at the rate of 1 ml/kg) or intraperitoneally as a suspension in tragacanth (at the rate of 10 ml/kg). The ED 20%, ie. the dose which produces a 20% lowering of the blood pressure, was determined from the linear regression of log dose (mg/kg) and relative lowering of the blood pressure (Δ%).

Setting [2] is: Table 1, rat, intraperitoneal, dose at which 50% of animals are cataleptic.
The mark [3] stands for this setting: Table 1, mouse, oral, dose producing 50% reduction in orientation hypermotility, read-out: Sedative effect ED 50%.
Setting [4] is: Table 2, sedative ED 50% vs hypotensive ED 20% i.p.
Setting [5] is: ip, Table 2, i.p., dose which reduces the blood pressure by 20%.
Setting [6] is: Table 2, mouse, oral, dose which reduces the motility by 50%, read-out: Sedative effect ED 50%.
Setting [7] is: Table 2, sedative ED 50% vs hypotensive ED 20% i.v.
[8] abbreviates: iv, Table 2, i.v., dose which reduces the blood pressure by 20%.

Turning to `COc1cccc(N2CCN(CC(O)COc3ccc(-n4cncn4)cc3)CC2)c1` (stereo not drawn) [Example 1, 1-[4-(1,2,4-Triazol-1-yl)-phenoxy]-3-[4-(3-methoxyphenyl)-piperazin-1-yl]-propan-2-ol], the “inhibition of histamine bronchospasm (average)” value in the test with histamine bronchospasm (0.1 mg/kg intravenously) is on record as 87%. For the same compound, in the test with histamine bronchospasm (in words), the “broncholytic effect on the histamine bronchospasm” value was “strong broncholytic effect”. For the same compound, in test [1] (Mus musculus, po, read-out: sedative effect ED 50%), the ED50 is 7.6 mg/kg. Also, the sedative action entry in test [1] (in words) is reported as “relatively slight sedative action”. Besides, the “effect in respect of sedation, % of that of chlorpromazine” value in test [1] stood at 28%.
In the case of `OC(COc1ccc(-n2cncn2)cc1)CN1CCN(c2ccc(F)cc2)CC1` (stereo not drawn) [Example 2, 1-[4-(1,2,4-Triazol-1-yl)-phenoxy]-3-[4-(4-fluorophenyl)-piperazin-1-yl]-propan-2-ol], in the test with catalepsy (Table 1, rat, intraperitoneal), the “Cataleptic effect R.A. (relative activity)” value turned out to be 0.43. The ED50 in the test on catalepsy (setting [2]) turned out to be 10 mg/kg; in test [1] (setting [3]), 2.52 mg/kg. For the same compound, the “effect in respect of catalepsy, % of that of chlorpromazine” value in the test on catalepsy is listed as 43%. Also, the “Hypotensive effect R.A. (relative activity)” value with blood pressure (Table 1, i.v.) stood at 0.08. Moreover, the “Q (quotient of the sedative effective dose and the hypotensive effective dose)” value in the test on blood pressure (Table 1, hypotensive dose i.v.) turned out to be 8.0. For the same compound, the “comparison with chlorpromazine, taking into account the hypotensive effect” value in the test with blood pressure is “clearly superior to chlorpromazine”. The ED20 in the test with blood pressure (iv, Table 1, i.v., dose producing 20% lowering of blood pressure) was determined as 0.316 mg/kg. In the test with blood pressure, the “quotient of the sedative effective dose and the hypotensive effective dose, times more advantageous than for chlorpromazine” value was 10 times. In test [1] (Table 1, mouse, oral), the “Sedative effect R.A. (relative activity)” value was 0.84. Further, the sedative-neuroleptic properties entry in test [1] (in words) was “powerful sedative-neuroleptic properties”. Also, the “effect in respect of sedation, % of that of chlorpromazine” value in test [1] is 84%.
Consider `OC(COc1ccc(-n2ccnc2)cc1)CN1CCN(c2ccc(F)cc2)CC1` (stereo not drawn) [Example 3, 1-[4-(Imidazol-1-yl)-phenoxy]-3-[4-(4-fluorophenyl)-piperazin-1-yl]-propan-2-ol], for which the “Cataleptic effect R.A. (relative activity)” value in the test on catalepsy (Table 1, rat, intraperitoneal) was 0.2. Besides, the ED50 with catalepsy (setting [2]) is 21.5 mg/kg. In addition, the “effect in respect of catalepsy, % of that of chlorpromazine” value in the test on catalepsy came to 20%. Further, in the test with blood pressure (Table 1, i.p.), the “Hypotensive effect R.A. (relative activity)” value is 0.02. In the test with blood pressure (Table 1, hypotensive dose i.p.), the “Q (quotient of the sedative effective dose and the hypotensive effective dose)” value is on record as 0.3. Moreover, in the test on blood pressure, the “comparison with chlorpromazine, taking into account the hypotensive effect” value is on record as “clearly superior to chlorpromazine”; the “quotient of the sedative effective dose and the hypotensive effective dose, times more advantageous than for chlorpromazine” value amounted to 43 times. Moreover, the ED20 with blood pressure (ip, Table 1, i.p., dose producing 20% lowering of blood pressure) was found to be 10 mg/kg. Also, the “Sedative effect R.A. (relative activity)” value in test [1] (Table 1, mouse, oral) is 0.77. Besides, in test [1] (setting [3]), the ED50 turned out to be 2.75 mg/kg. In test [1] (in words), the sedative-neuroleptic properties result is given as “powerful sedative-neuroleptic properties”. Also, the “effect in respect of sedation, % of that of chlorpromazine” value in test [1] is given as 77%.
Take `COc1ccccc1N1CCN(CC(O)COc2ccccc2-c2ccnc(N)n2)CC1` (stereo not drawn) [Example 5, 1-[2-(2-Aminopyrimidin-4-yl)-phenoxy]-3-[4-(2-methoxyphenyl)-piperazin-1-yl]-propan-2-ol]: the “Hypotensive effect R.A. (relative activity)” value in the test on blood pressure (Table 2, i.p.) was found to be 2.06. Also, in the test with blood pressure (setting [4]), the Q is reported as 413. Further, the “hypotensive action, doses compared with chlorpromazine” value in the test on blood pressure (Table 2) was “at lower doses than chlorpromazine”. In addition, the ED20 in the test with blood pressure (setting [5]) is 0.0795 mg/kg. Moreover, the “doses at which sedative side-effect is observed relative to hypotensive doses” value in test [1] (Table 2) was 400-1,300 times greater. Further, the “Sedative effect R.A. (relative activity)” value in test [1] (Table 2, mouse, oral) was 0.06. Also, the ED50 in test [1] (setting [6]) came to 32.8 mg/kg.
Consider `COc1ccccc1N1CCN(CC(O)COc2ccccc2-c2cc[nH]n2)CC1` (stereo not drawn) [Example 10, 1-[2-(Pyrazol-3-yl)-phenoxy]-3-[4-(2-methoxyphenyl)-piperazin-1-yl]-propan-2-ol.HCl], for which the “Hypotensive effect R.A. (relative activity)” value in the test with blood pressure (Table 2, i.v.) amounted to 0.79. In addition, the Q with blood pressure (setting [7]) stood at 442. Further, the “hypotensive action, doses compared with chlorpromazine” value with blood pressure (Table 2) is reported as “at lower doses than chlorpromazine”. For the same compound, the ED20 with blood pressure (setting [8]) stood at 0.0328 mg/kg. Further, in test [1] (Table 2), the “doses at which sedative side-effect is observed relative to hypotensive doses” value is recorded as 400-1,300 times greater. Also, the “Sedative effect R.A. (relative activity)” value in test [1] (Table 2, mouse, oral) is 0.15. In addition, in test [1] (setting [6]), the ED50 is 14.5 mg/kg.
Take `COc1ccccc1N1CCN(CC(O)COc2cccc(-c3cc[nH]n3)c2)CC1` (stereo not drawn) [Example 15, 1-[3-(Pyrazol-3-yl)-phenoxy]-3-[4-(2-methoxyphenyl)-piperazin-1-yl]-propan-2-ol.3HCl]: in the test on blood pressure (Table 2, i.v.), the “Hypotensive effect R.A. (relative activity)” value is on record as 1.39. Also, in the test with blood pressure (setting [7]), the Q is listed as 1,342. Also, the “hypotensive action, doses compared with chlorpromazine” value in the test on blood pressure (Table 2) is “at lower doses than chlorpromazine”. Besides, the ED20 in the test with blood pressure (setting [8]) amounted to 0.0187 mg/kg. Besides, in test [1] (Table 2), the “doses at which sedative side-effect is observed relative to hypotensive doses” value is given as 400-1,300 times greater. Besides, the “Sedative effect R.A. (relative activity)” value in test [1] (Table 2, mouse, oral) is reported as 0.08. Moreover, the ED50 in test [1] (setting [6]) was found to be 25.1 mg/kg.
With `CN(C)CCCN1c2ccccc2Sc2ccc(Cl)cc21` [chlorpromazine, reference compound], the ED50 in the test with catalepsy (Rattus norvegicus) turned out to be 4.3 mg/kg. The “Cataleptic effect R.A. (relative activity)” value with catalepsy (Table 1, rat, intraperitoneal) is 1.0. The “Hypotensive effect R.A. (relative activity)” value turned out to be 1.0 in the test on blood pressure (Table 1, i.p.); 1.0 with blood pressure (Table 1, i.v.); 1.00 in the test with blood pressure (Table 2, i.p.); 1.00 in the test with blood pressure (Table 2, i.v.). Further, the “Q (quotient of the sedative effective dose and the hypotensive effective dose)” value in the test with blood pressure (Table 1, hypotensive dose i.v.) amounted to 81.1. The “Hypotensive effect ED 20%” value in the test on blood pressure (Table 1, i.p., dose producing 20% lowering of blood pressure) is on record as 0.164; in the test with blood pressure (Table 1, i.v., dose producing 20% lowering of blood pressure), 0.026. The Q in the test with blood pressure (setting [4]) is listed as 13; with blood pressure (setting [7]) it was 81. Also, the ED20 worked out at 0.164 mg/kg in the test with blood pressure (setting [5]) and 0.026 mg/kg in the test on blood pressure (setting [8]). In addition, the “Sedative effect R.A. (relative activity)” value in test [1] (Table 1, mouse, oral) is recorded as 1.0; in test [1] (Table 2, mouse, oral) it was 1.00. For the same compound, in test [1] (Table 1, mouse, oral, dose producing 50% reduction in orientation hypermotility), the “Sedative effect ED 50%” value turned out to be 2.11.
